The record followed here is patent US20250108038A1 (priority 2023, published 2025).

Series [1] has as its system orexin/tTA; Tet-O diphtheria toxin A mice (DTA mice). The class given is in vivo, mouse. The settings on record: 6 h after dosing at ZT12; for cataplexy (C) time: Compound I-19 0.3, 1, 3 mg/kg i.p., Compound I-4 0.3, 1, 3 mg/kg p.o., Des 5 mg/kg p.o.
In the next series the target is T1, OAT3 (Homo sapiens, UniProt Q8TCC7).
T1 sequence (Q8TCC7 1-542): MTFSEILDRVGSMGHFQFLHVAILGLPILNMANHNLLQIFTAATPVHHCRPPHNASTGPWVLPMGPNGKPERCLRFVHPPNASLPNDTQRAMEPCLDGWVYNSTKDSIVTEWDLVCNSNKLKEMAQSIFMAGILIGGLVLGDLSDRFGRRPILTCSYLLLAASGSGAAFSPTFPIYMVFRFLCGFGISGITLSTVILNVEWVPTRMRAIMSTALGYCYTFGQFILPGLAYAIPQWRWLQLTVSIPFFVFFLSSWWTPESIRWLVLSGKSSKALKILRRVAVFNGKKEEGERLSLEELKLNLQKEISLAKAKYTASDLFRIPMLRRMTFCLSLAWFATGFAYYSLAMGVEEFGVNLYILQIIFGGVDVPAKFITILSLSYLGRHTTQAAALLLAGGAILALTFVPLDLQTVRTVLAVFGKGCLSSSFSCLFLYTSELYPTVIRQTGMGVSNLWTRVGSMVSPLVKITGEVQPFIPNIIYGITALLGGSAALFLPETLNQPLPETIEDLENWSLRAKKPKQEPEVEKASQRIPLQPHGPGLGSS
The series is described as follows: Uptake transporter inhibition assay, OAT3 (estrone-3-sulfate). The settings on record: for inhibition at 500 μM: human. Here is the method: Uptake experiments were performed using HEK293 cells stably expressing the respective uptake transporters. The assays were conducted according to the actual SOLVO uptake transporter assay protocols (PR-ASY-UPT-General Protocol for Uptake Transporter Inhibition Assays).
Cells were cultured at 37° C. in a humidified atmosphere containing 5% CO2 and were plated onto standard 96-well tissue culture plates.
Before the experiment, the medium was removed, and the cells were washed twice with 100 μL of pre-warmed (37° C.) assay buffer listed in Table 15. The cells were pre-incubated at 37° C. for 30 minutes in assay buffer containing the test article at appropriate concentrations (Table 16), appropriate solvents for solvent controls and the reference inhibitor for reference inhibitor wells. After the pre-incubation step solutions were removed. Uptake experiments were performed at 37° C. in 50 μL of assay buffer containing the probe substrate and the test article or solvent and controls.
After the experiment, cells were washed twice with 100 μL of appropriate cold buffer and lysed with 150 μL scintillation cocktail. Radiolabeled probe substrate transport was determined by liquid scintillation counting.
Uptake of the probe substrate in control cells provided background activity values for all data points.

In another series the test system is rat red blood cells. Put plainly: Hemolysis study in rat blood. The settings on record: 60 min, 37° C. The class given is cell-based. How it is done: FIG. 6A. […] Compound I-19 in rat blood. Red blood cells were isolated from whole blood and resuspended in PBS. […] (final concentrations 25, 50, and 100 μM) and the mixtures were incubated at 37° C. for 60 min. After the incubation, the samples were centrifuged and the absorbance of 100 μL of supernatant was read at 410 nm. % RBC lysis is expressed relative to 100% lysis control. Values represent mean+SEM of n=3 separate experiments.
FIG. 6B. […] Compound I-19 in rat blood. Red blood cells were isolated from whole blood and resuspended in PBS. […] (final concentrations 25, 50, and 100 μM) and the mixtures were incubated at 37° C. for 60 min. After the incubation, the samples were centrifuged and the absorbance of 100 μl of supernatant was read at 410 nm. % RBC lysis is expressed relative to 100% lysis control. Values represent mean+SEM of n=3 separate experiments.
FIG. 6C. Hemolytic Potential of Amphotericin B in rat blood (positive assay control). Red blood cells were isolated from whole blood and resuspended in PBS. 190 μL of diluted RBC suspension and 10 μL of amphotericin B solutions were mixed at 0 min. (final concentrations 1, 10, 30, and 100 μM) and the mixtures were incubated at 37° C. for 60 min. After the incubation, the samples were centrifuged and the absorbance of 100 μL of supernatant was read at 410 nm. % RBC lysis is expressed relative to 100% lysis control. Values represent mean+SEM of n=3 separate experiments.
(§1) To a clear 96-well V-bottom polystyrene plate, the test articles (10 μL) and the diluted RBCs (190 μL) from human or rat blood were mixed for final concentrations of 25, 50, and 100 μM. The reaction mixture was incubated at 37° C. for 60 min. Following the exposure period, the plates were centrifuged. After centrifugation, 70 μL of supernatant (without disturbing the pellet) was transferred to a clean and clear polystyrene flat bottomed 96-well plate and the absorbance of the sample at a single wavelength was measured using a BioTech Synergy H1 Plate Reader at a wavelength of 410 nm. The positive control for this assay was amphotericin B test at concentrations of 1, 10, 30, and 100 μM.

The subject of another series is human red blood cells. The series is described as follows: Hemolysis study in human blood. Format: cell-based. The settings on record: 60 min, 37° C. How it is done: FIG. 4A. […] Compound I-19 in human blood. Red blood cells were isolated from whole blood and resuspended in PBS. […] (final concentrations 25, 50, and 100 μM) and the mixtures were incubated at 37° C. for 60 min. After the incubation, the samples were centrifuged and the absorbance of 100 μL of supernatant was read at 410 nm. % RBC lysis is expressed relative to 100% lysis control. Values represent mean+SEM of n=3 separate experiments.
FIG. 4B. Hemolytic Potential of Compound I-4 in human blood. Red blood cells were isolated from whole blood and resuspended in PBS. 190 μL of diluted RBC suspension and 10 μL of Compound I-4 solutions were mixed at 0 min. (final concentrations 25, 50, and 100 μM) and the mixtures were incubated at 37° C. for 60 min. After the incubation, the samples were centrifuged and the absorbance of 100 μL of supernatant was read at 410 nm. % RBC lysis is expressed relative to 100% lysis control. Values represent mean+SEM of n=3 separate experiments.
FIG. 4C. Hemolytic Potential of Amphotericin B in human blood (positive assay control). Red blood cells were isolated from whole blood and resuspended in PBS. 190 μL of diluted RBC suspension and 10 μl of amphotericin B solutions were mixed at 0 min. (final concentrations 1, 10, 30, and 100 μM) and the mixtures were incubated at 37° C. for 60 min. After the incubation, the samples were centrifuged and the absorbance of 100 μL of supernatant was read at 410 nm. % RBC lysis is expressed relative to 100% lysis control. Values represent mean+SEM of n=3 separate experiments.
as §1

The test system of the next series is Wistar rats. Format: in vivo, Wistar rat. How it is done: Animals were trained in eight automated 5C-SRTT operant chambers (Med Associates, St. Albans, VT, USA), controlled by MedPC software (Med Associates). Briefly, each operant chamber was equipped with 5 apertures containing a photocell beam to detect nose pokes and a lamp (2.8 W) that could be illuminated randomly at varying durations. Food pellets (45 mg chow pellet, BioServ, Frenchtown, NJ, USA) were delivered automatically to a magazine, located on the opposite wall to the nose pokes, that was also equipped with a light that turned on to indicate that a pellet had been dispensed. The house-light remained on for the entire session unless an error or omission occurred. Training sessions began with the delivery of a food reward and retrieval triggered the first trial. […] Training began with the stimulus duration set at 10 sec, a limited hold period of 5 sec and an ITI of 5 sec. […] Sessions ended when 40 minutes had lapsed or 100 trials had been completed.
Upon meeting the performance criteria, animals were assessed in the vSD version of the task where the following stimulus durations were presented in a pseudorandom manner: 0.3, 0.6 and 0.9 sec. Later, subjects were assessed in the vITI version where 2.5, 5.0 and 10.0 sec ITIs were employed in a pseudorandom manner. Performance parameters measured were: % hit ((# correct/(# correct+# incorrect including omissions))×100); % correct ((# correct/(# correct+# incorrect excluding omissions))×100); premature responses (# of nose-pokes into any aperture after trial initiation but before onset of the stimulus light); timeout responses (# of nose pokes into any aperture during a timeout period), perseverative responses (# of nose pokes occurring after the correct response had been made but before reward collection); # of food magazine head entries, omissions and total trials completed. The latency to correct response (time taken from the onset of the nose poke light stimulus to making the correct nose poke response), latency to incorrect response (time taken from onset of nose poke light stimulus to making the incorrect nose poke response), and latency to reward (i.e., the magazine latency, time taken from making a correct nose poke response to retrieving the reward from the magazine) was also recorded.
Drug doses and vehicle were administered in a pseudorandom fashion. Drug or vehicle sessions were performed 1-2 times per week with maintenance training (behavioral testing without drug or vehicle injections) interspersed.
All data were collated and entered into Microsoft Excel spreadsheets. The data were subsequently imported into StatView 5.0 for statistical analyses. One and two factor analysis of variance (ANOVA) tests were used with repeated measures when indicated, followed by Fisher LSD or Student Newman Keuls as post-hoc tests. All results were expressed as the mean (±S.E.M.). Differences between means from experimental groups were considered significant at the p<0.05 level. The statistical F values and degrees of freedom associated with the two factor ANOVA analyses are provided in the text of this report. Please refer to the statistical reports in the appendices for the values associated with one factor ANOVAs for the overall means and overall total values.

The mark [2] stands for this setting: test articles 25, 50, 100 μM, amphotericin B 1, 10, 30, 100 μM.

Structures are written as SMILES. Like-named read-outs stand apart in the source and are kept apart here.

As for `CNCCCN1c2ccccc2CCc2ccccc21` [Desipramine, reference compound], the “latency to REM (effect)” value in series [1] was “increased the latency to REM onset”. Also, the results for the “cataplexy (C) time” value in series [1] and in series [1] (listed as Des) were “decreased significantly for the first 2 h post administration but was not significant overall” and “decreased for the first 2 h post administration but was not significant overall”, respectively. The REM time entry in series [1] (same doses) is listed as “overall reduction in REM sleep did not reach significance”.

In turn, `CCCN(CCC)S(=O)(=O)c1ccc(C(=O)O)cc1` [Probenecid] displayed a Transporter specific accumulation on OAT3 (500.00 μM nominal, E3S, Table 130) of 291.67 ± 17.04 cpm. Moreover, the “Relative transporter specific accumulation” value on OAT3 (500.00 μM, reference inhibitor) is recorded as 1.68 ± 0.31 % of control. Also, the inhibition at 500 μM was determined as 98% on OAT3 (Relative Inhibition, 500.00 μM nominal, E3S, Table 130) and 97% at OAT3 (Relative inhibition, 500.00 μM, reference inhibitor).

On to `C[C@@H]1[C@H](O)[C@@H](C)/C=C/C=C/C=C/C=C/C=C/C=C/C=C/[C@H](O[C@@H]2O[C@H](C)[C@@H](O)[C@H](N)[C@@H]2O)C[C@@H]2O[C@](O)(C[C@@H](O)C[C@@H](O)[C@H](O)CC[C@@H](O)C[C@@H](O)CC(=O)O[C@H]1C)C[C@H](O)[C@H]2C(=O)O` [amphotericin B, reference compound], for which the half-maximal effective concentration (EC50) worked out at 4.73 µM with rat red blood cells (read-out: EC50 (% RBC lysis)) and 7.06 µM with human red blood cells (read-out: EC50 (% RBC lysis)). The “% RBC lysis (hemolytic potential)” value in the series on rat red blood cells (setting [2]) and with human red blood cells (setting [2]) was “dose-dependent increase in % RBC lysis” in each case.

`CN1CCCC1c1cccnc1` (stereo not shown) [nicotine, Nicotine, reference compound]: the “% hit rate” value in the series on Wistar rats (nicotine 0.05-0.2 mg/kg sc, Compound I-4 0.1-3.0 mg/kg ip, Compound I-19 0.03-1.0 mg/kg ip) is recorded as “increase in the % hit rate”. In the series on Wistar rats (same doses), the “% correct” value was “no statistically significant effects”; the Magazine Head Entries result is given as “increase in the number of premature responses, timeout responses, magazine head entries”; the Omissions result is “decrease in omissions”; the “number of trials completed” value is given as “no effect on the total number of trials completed”. Moreover, in the series on Wistar rats (same doses), the perseverative responses entry was “no statistically significant effects on perseverative responses or reward latencies”; the premature responses result is recorded as “the higher 2 doses of nicotine were associated with an increase”; the “response latencies (correct, incorrect)” value was “modest decrease in the response latencies associated with correct responses”; the reward latencies entry is listed as “no statistically significant effects on perseverative responses or reward latencies”. Further, the timeout responses entry with Wistar rats (same doses) is reported as “increase in the number of premature responses, timeout responses, magazine head entries”.
